Experimental data: patent US20230348415A1, “BISPECIFIC ANTAGONISTS OF RETINOL-BINDING PROTEIN 4 THAT STABILIZE TRANSTHYRETIN TETRAMERS, THEIR PREPARATION, AND USE IN THE TREATMENT OF COMMON AGE-RELATED COMORBIDITIES” (The Trustees of Columbia University in the City of New York, priority 2020, published 2023)
“Also recorded” adds a separate entry of the source.

Tests used:
TTR = TTR (Homo sapiens (Human), UniProt P02766); assay: Acid-induced TTR aggregation assay; assay type: biochemical; settings: 50 μM compound, pH 4.0, 72 h, 37° C.
Description: FIG. 6. […] After incubation in the presence of 50 μM Tafamidis, 50 μM Benzbromarone and 50 μM (±)-44, samples were crosslinked and subjected to SDS-PAGE followed by western blotting with TTR antibodies. The representative blot of at least three independent experiments is presented. (B, C), Bar graphs represent pixel volumes of TTR high molecular weight aggregates (B) and monomers (C). The vertical axes represent the ratio of pixel volume means±S.D. of the scanned bands on the immunoblots in arbitrary units. Statistical significance was determined by one-way ANOVA with Holm-Sidak post hoc test; *, p≤0.05; **, p≤0.01; ***, p≤0.001; ****, p≤0.0001 compare to TTR aggregation (pH 4.0)+DMSO group, #, p≤0.05; ##, p≤0.01; ###, p≤0.001; ####, p≤0.0001 compare to TTR without aggregation (pH 7.5) group.
The ability of test compounds to prevent TTR aggregation was evaluated under the acidic conditions that favor TTR aggregation and fibril formation. […] At the end of the incubation, 3.5 μl 500 mM sodium phosphate (Sigma #S5136) buffer pH=8.0 was added to each sample for neutralization and 0.6 μl 5% CHAPS (Sigma #C5070) as a detergent to prevent reassociation of protein. The cross-linking was performed by adding 1.5 μl 5% glutaraldehyde solution (Sigma #G6257). After 4 min, the reaction was stopped by the addition of 2.5 μl freshly made 5% NaBH4. Samples were subjected to TTR western blotting with prealbumin antibodies (1:500; Dako #A0002). Band intensity for TTR monomer and TTR aggregates was quantified from scanned images of the blots.

[1] = In vivo PK in CD-1 mice (IV and PO); parameters: species or system mouse; settings: male CD-1 mice
Description: • IV dosing vehicles: 3% DMA/45% PEG300/12% ethanol/40% sterile water • PO dosing vehicle: 2% Tween 80 in 0.9% saline • Dose formulation: The dose formulation was prepared by the step-wise addition (in the order listed) of the individual components of the vehicle to a weighed quantity of test compound in a volume that yielded the desired final concentration. Each formulation was prepared by mixing a weighed quantity of test compound with the appropriate volume of vehicle. • Dosing Solution Analysis: The dosing solutions were analyzed by LC-MS/MS. The dosing solutions were diluted into mouse blood and analyzed in triplicate. All concentrations are expressed as mg/mL of the free base. The nominal dosing level was used in all calculations for Group 1.
• Species and strain: mouse; male CD-1 • Mean weight: 0.034 kg for the IV arm; 0.027 kg for PO arm • Number: 6 animals total (three animals per dosing group (Group 1 (IV) and Group 2 (PO)), per study) • COMPLIANCE: This non-clinical study followed established practices and standard operating procedures of Absorption Systems as well as the study protocol. This study was exploratory in nature and was not conducted in accordance with the principles set forth in the United States Food and Drug Administration (FDA) Good Laboratory Practice (GLP) Regulations, 21 Code of Federal regulations (CFR) Part 58. The report is archived in a validated scientific data management system. Electronic signatures comply with the regulation 21 CFR Part 11.
Blood was collected from mice at pre-dose and at 5, 15 and 30 min, and 1, 2, 4, 8, 24 and 48 h post-dose. Hemolyzed blood samples were extracted by protein precipitation using acetonitrile. Following protein extraction with acetonitrile, compound levels were measured by LC-MS/MS. Pharmacokinetic parameters were calculated from the time course of the blood concentrations. Pharmacokinetic parameters were determined with Phoenix WinNonlin (v8.0) software using a non-compartmental model. The maximum blood concentrations (CO) after IV dosing were estimated by extrapolation of the first two time points back to t=0. The maximum blood concentration (Cmax) and the time to reach maximum blood concentration (tmax) after PO dosing were observed from the data. The area under the time concentration curve (AUC) was calculated using the linear trapezoidal rule with calculation to the last quantifiable data point, and with extrapolation to infinity if applicable. Blood half-life (t ½) was calculated from 0.693/slope of the terminal elimination phase. Mean residence time, MRT, was calculated by dividing the area under the moment curve (AUMC) by the AUC. Clearance (CL) was calculated from dose/AUC. Steady-state volume of distribution (Vss) was calculated from CL*MRT. Bioavailability was determined by dividing the individual dose normalized PO AUC∞ values by the average dose-normalized IV AUC∞ value. Any samples below the limit of quantitation (1.00 ng/mL) were treated as zero for pharmacokinetic data analysis.

serum RBP4 = serum RBP4 (Mus musculus (Mouse), UniProt Q00724); assay: Serum RBP4 after long-term oral dosing in Abca4−/− mice; assay type: in vivo; settings: 25 mg/kg daily in chow
Description: FIG. 7. Effect of the long-term oral (±)-44 administration in Abca4^−/− mice on serum RBP4 levels. Serum RBP4 levels were measured in vehicle-treated Abca4^−/− mice (squares) and (±)-44-treated Abca4-mice (triangles) at the indicated time points. […] Error bars show S.D. Each data point on the graph represents a serum RBP4 concentration from an individual animal.
Blood samples were collected from a tail vein. Whole blood was drawn into a centrifuge tube and was allowed to clot at room temperature for 30 minutes followed by centrifugation at 2000 g for 15 minutes at […] to collect serum. Aliquots of plasma samples collected in the mouse pharmacokinetic study were analyzed for the RBP4 concentration using the RBP4 (mouse/rat) dual ELISA kit (AdipoGen, San Diego, CA) following the manufacturer's instructions. In adi-hRBP4 transgenic mouse experiments, blood samples were collected from a tail vein. Whole blood was drawn into a centrifuge tube and was allowed to clot at room temperature for 30 min followed by centrifugation at 2000 g for 15 min at +4° C. to collect serum. Mouse serum RBP4 (produced predominantly in the liver) was measured using the RBP4 (mouse/rat) dual ELISA kit (AdipoGen, San Diego, CA; catalog number AG-45A-0012YTP-KI01)
(±)-44 was formulated into a Picolab 5053 chow to ensure a daily dosing of 25 mg/kg of (±)-44. […]

For Cc1cc(C(=O)O)nc(N2CCC(COc3ccccc3C(F)(F)F)C2)n1 (racemic) [Compound (±)-44, (±)-6-Methyl-2-(3-((2-(trifluoromethyl)phenoxy)methyl)pyrrolidin-1-yl)pyrimidine-4-carboxylic Acid], which “formation of high molecular weight TTR species” value (TTR) is on record?
The value was “reduces the formation of high molecular weight TTR forms; also recorded: significantly reduced the formation of high molecular weight TTR species”.

And the “TTR monomer band intensities” value (TTR; vs DMSO)?
The value was “Significant increase”.

And the “fold reduction in formation of high molecular weight aggregates” value (TTR; vs DMSO)?
Its value is 4.7 fold.

What about the CL ([1]; IV 2 mg/kg) of the same compound?
Its CL is 0.832 mL/min/kg.

And the AUCINF ([1]; PO 5 mg/kg)?
Its AUCINF is 52439 ng·h/mL.

And the t1/2 ([1]; PO 5 mg/kg)?
Its t1/2 is 9.9 h.

And the AUC(0-inf) ([1]; mouse, whole blood, IV 2 mg/kg)?
Its AUC(0-inf) is 40300 ng·h/mL.

And the AUC(0-t) ([1]; mouse, whole blood, IV 2 mg/kg)?
Its AUC(0-t) is 39500 ng·h/mL.

And the clearance ([1]; mouse, whole blood, IV 2 mg/kg)?
Its clearance is 0.832 mL/min/kg.

What about the half-life ([1]; mouse, whole blood, IV 2 mg/kg) of the same compound?
Its half-life is 8.6 h.

And the C0 ([1]; mouse, whole blood, IV 2 mg/kg, blood)?
Its C0 is 9130 ng/mL.

What about the Vd ([1]; mouse, whole blood, IV 2 mg/kg, read-out: Vss) of the same compound?
Its Vd is 0.518 L/kg.

And the bioavailability ([1]; mouse, whole blood, PO 5 mg/kg vs IV 2 mg/kg)?
Its bioavailability is 52%.

And the AUC(0-inf) ([1]; mouse, whole blood, PO 5 mg/kg)?
The AUC(0-inf) was 52400 ng·h/mL.

What about the AUC(0-t) ([1]; mouse, whole blood, PO 5 mg/kg) of the same compound?
Its AUC(0-t) is 50400 ng·h/mL.

And the Tmax ([1]; mouse, whole blood, PO 5 mg/kg)?
Its Tmax is 0.83 h.

And the half-life ([1]; mouse, whole blood, PO 5 mg/kg)?
Its half-life is 9.9 h.

And the Cmax ([1]; mouse, whole blood, PO 5 mg/kg, blood)?
Its Cmax is 3030 ng/mL.

What about the “serum RBP4 reduction compared to untreated Abca4−/− mice” value (serum RBP4; week 12) of the same compound?
The value was 82%.

And the “serum RBP4 reduction compared with baseline” value (serum RBP4; week 12, Abca4−/− mice)?
Its value is 79%.
